Laboratory results taken from article PMC7806726, “Activated neutrophil fluorescent imaging technique for human lungs” (Scientific Reports, 2021).
Numbered stars: 1 amine (or outer) side, 2 acyl side, 3 side chain; on linkers, the order of the positions; unused ones are H or OH. Bridge positions count the residues as written; N and C are the ends. Square brackets hold non-standard residues; d marks the D form. Peptide text beside a SMILES is read from it. I, II: the chains in the order shown. * marks the point of attachment. 5FAM = O=C1OC2(c3ccc(O)cc3Oc3cc(O)ccc32)c2ccc(C(=O)*)cc21; X1 = NC(=O)NC(COCCCN[*:1])(COCCCN[*:2])COCCCN[*:3]; Nle = CCCC[C@H](N)C(=O)O; AEEA = NCCOCCOCC(=O)O

Key:
[1] = system: freshly isolated neutrophils; assay: Flow cytometry of intracellular NAP fluorescence in isolated neutrophils; type: cell-based, human; settings: A23187 10 µM activated neutrophils, NAP 5 µM; Dynasore Hydrate 30 µM, DPI 10 µM, Sivelestat 100 µM; 30 min 37 °C
Experimental: Neutrophils were suspended in PBS with divalent cations at a concentration of 10 × 10^6/mL. […] Incubation took place at 37 °C for 30 min and samples were shaken at 500 rpm using an orbital plate shaker (Thermomixer comfort, Eppendorf, Hamburg, Germany). Suspensions were then incubated with anti-human CD11b-APC (1:100 dilution, Clone ICRF44, Biolegend, CA, USA) at 22 °C for 30 min at 500 rpm before the application of NAP to a final concentration of 5 µM for 15 min at 22 °C and 500 rpm. Cells were washed in PBS without divalent cations at 350 g for 5 min at room temperature using a microtube centrifuge (Biofuge fresco, Heraeus, Hanau, Germany) and reconstituted in 175 µL PBS without divalent cations. Samples were loaded onto a 96 round-bottomed well plate (Corning).
Flow cytometry was performed using an Accuri C6 flow cytometer and BD CSampler software (both Becton–Dickinson, NJ, USA). Compensation beads and single stain controls were used where appropriate. […] The cytometer was thresholded on forward scatter to eliminate debris. The cytometer was aligned monthly using Calibrite 3, APC and 8 peak beads (Becton–Dickinson) to calibrate scatter and fluorescence parameters.
Data analyses were performed using Flowjo v10.0.8r1 (Treestar, Ashland, OR, USA). Samples were repeated in duplicate for each individual donor and pooled to yield a point estimate for each condition and each donor. The point estimates from different donors were pooled to yield an overall mean point estimate for each condition ± SE.

[2] = system: freshly isolated human peripheral neutrophils; assay: Neutrophil toxicity (Annexin V / propidium iodide flow cytometry); type: cell-based; settings: 5 µM NAP, 18 h, 37 °C, IMDM with 10% autologous serum, Annexin V/PI
Experimental: (§1) Membrane toxicity of NAP was assessed using erythrocyte haemolysis. Isolated erythrocytes remaining after leukocyte separation were diluted 1:5 with PBS without cations and 50 µL of this red cell suspension was added to wells of a 96-well plate. Working concentration of NAP (5 µM), or working concentration × 2, was added to the relevant well. Positive control wells contained Triton X-100 (0.4%, Sigma-Aldrich) and negative control wells contained PBS w/o only. The 96-well plate was incubated for one hour at 37 °C in a humidified environment. Following incubation, 180 µL of PBS without cations was added to each well and the plate was centrifuged at 2500 rpm for 10 min. 100 µL of supernatant from each well was removed and aliquoted into clean wells. Absorbance at 350 nm was recorded using a plate reader. Triplicate repeats were pooled to yield an overall mean point estimate ± SEM of haemolysis that was expressed as a percentage of the positive control. For neutrophil toxicity freshly isolated human peripheral neutrophils were resuspended at 10 × 10^6 cells/mL in IMDM with 10% autologous serum and cultured for 18hrs ± 5 µM NAP at 37 degrees in a 5% CO2 incubator. […] Duplicate repeats were pooled to yield an overall mean point estimate ± SEM of apoptosis and necrosis that was expressed as a percentage of total cells.

erythrocytes = assay: Erythrocyte haemolysis (membrane toxicity); type: cell-based, human; settings: NAP 5 µM or working concentration × 2, 1 h 37 °C, absorbance 350 nm, vs Triton X-100 0.4%
Experimental: as §1

rats = assay: GLP toxicology study, delivery via the trachea; type: in vivo, rat
Experimental: NAP was delivered via the trachea to rats in a Contract Research Organization Good Laboratory Practice (GLP) toxicology study at approximately 700 times the human dose. NAP (100 µg) was instilled and rats underwent necroscopy at 3 and 15 days after delivery. […] The release specifications for NAP drug substance and drug product are shown in Supplementary tables S3 and S4.
All experiments using human volunteers were performed following approval from the appropriate regional ethics committee (REC) and informed consent was obtained from each participant or their personal legal representative for adults with incapacity (in accordance with the Adults with Incapacity (Scotland) Act 2000). BALF for alveolar macrophages: (East of Scotland Research Ethics Committee 1 no: 07/S1102/20), blood for assessment of leucocyte populations (Lothian Research Ethics Committee no: 08/S1103/38), and first-in-human assessment of probe performance and safety (Scotland A Research Ethics Committee no: 12/SS/0004, EudraCT 2011-006169-17, NCT01532024). All methods were performed in accordance with the relevant guidelines and regulations. Animal toxicology was conducted in compliance with UK Good Laboratory Practice Regulations by a third party contract research organization (Covance Laboratories Ltd, Harrogate, UK) under Covance UK Home Office License for toxicology. […]

[3] = target: T1, human neutrophil elastase (HNE) (Homo sapiens, UniProt P08246); assay: Plate reader assessment of probe de-quenching with purified HNE; type: biochemical
T1 construct: purchased Elastin Products Company, MO, USA
T1 sequence (P08246 30-267): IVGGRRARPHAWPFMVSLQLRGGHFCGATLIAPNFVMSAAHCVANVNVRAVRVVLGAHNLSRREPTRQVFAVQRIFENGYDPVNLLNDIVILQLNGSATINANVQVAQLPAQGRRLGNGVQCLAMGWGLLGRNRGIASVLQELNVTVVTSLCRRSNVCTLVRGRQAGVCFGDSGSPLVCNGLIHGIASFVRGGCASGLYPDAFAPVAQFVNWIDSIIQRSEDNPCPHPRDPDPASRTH
Experimental: To generate an emission spectrum, NAP was excited at 430 nm to ensure the spectrum could be visualized to the x-axis. Excitation/absorbance spectra were obtained with NAP diluted to 5 µM in PBS or freshly prepared pH buffer. Purified HNE (Elastin Products Company, MO, USA) and purified proteinase 3 (Sigma-Aldrich, Poole, UK) were made up according to the manufacturer’s instructions to yield appropriate stock concentrations. Stock preparations of purified enzyme were prepared according to manufacturers’ instructions and subsequently diluted appropriately with Phosphate Buffered Saline (PBS, Thermoscientific, MA, USA) and NAP to achieve a final volume of 200 µL per condition and a final NAP concentration of 5 µM. Solutions were prepared directly into 96 well plates (Corning, NY, USA) on ice, with or without the human neutrophil elastase inhibitor Sivelestat (ONO-5046, 100 µM, Tocris, Bristol, UK). Plates were subsequently incubated at 37 °C with fluorescent parameters recorded every minute for 1 h (Fig. 1C, excitation 488 nm, emission 525 nm). All fluorescence parameters were recorded using a microplate reader (Synergy H1 hybrid reader, BioTek, Potton, UK,).

[4] = GLP AMES mutagenicity test, microsuspension-modified method
[5] = system: isolated healthy human neutrophils; assay: Confocal time course of primed neutrophils activated with fMLF; type: cell-based; settings: co-incubation with Sivelestat 100 µM; Cytochalasin B primed, fMLF 500 nM, NAP 5 µM
Experimental: Where stated commercial stains were used in accordance with the manufacturer’s instructions or applied to a suspension of the relevant cells in eppendorfs at a concentration of 1:1000 from delivered stock for 10 min at 37 °C and 500 rpm using an orbital plate shaker before undergoing one wash in PBS without divalent cations as described above. 8 well Lab-Tek II confocal chambers (VWR, PA, USA) were coated in fibronectin (1 µg/ml, Sigma-Aldrich) for 10 min at 37 °C. Wells were then washed twice before the addition of the appropriate cell suspension. Cells were typically seeded at a concentration of 0.5—1 × 10^6/mL. […]
A laser scanning confocal imaging system (LSM510; Carl Zeiss, Jena, Germany), incorporating an upright Axioskop FS2 microscope (× 63 objective) was used for image acquisition. […] Fluorescein based dyes were excited with a dedicated 488 nm laser line, with emitted light detected at 500–530 nm. Syto 82 nuclear, calcein cytoplasmic dyes and CellMask Orange plasma membrane stain (all Invitrogen, Thermoscientific) were excited with a dedicated 543 nm line, with emitted light detected at 560–600 nm. Syto 60 (Invitrogen, Thermoscientific) stain was excited with a dedicated 633 nm line, with emitted light detected at 650–680 nm. PKH labelled bacteria were excited with a dedicated 633 nm line with emitted light detected at 650–705 nm. […]

[6] = Change in fluorescence with pH (plate reader); type: physicochemical; settings: carboxyfluorescein 15 µM, freshly made pH buffer; n = 1, in triplicate

In the case of `c1ccc2c(c1)[I+]c1ccccc1-2` [DPI, Diphenyleneiodonium], the “effect of inhibitor on intracellular NAP fluorescent signal (flow cytometry)” value (“effect of inhibitor … (flow cytometry)” for short) [1] is reported as “reduced the overall mean fluorescent intensity”.

With `O.O=C(N/N=C/c1ccc(O)c(O)c1)c1cc2ccccc2cc1O` [Dynasore Hydate, Dynasore Hydrate] the “effect of inhibitor … (flow cytometry)” value [1] was “abrogated”.

With `CCCC[C@H](NC(=O)[C@@H](NC(=O)[C@H](CCC(=O)O)NC(=O)[C@H](CCC(=O)O)NC(=O)COCCOCCNC(=O)c1ccc2c(c1)C(=O)OC21c2ccc(O)cc2Oc2cc(O)ccc21)[C@@H](C)CC)C(=O)N[C@@H](CCCNC(=N)N)C(=O)N[C@@H](CCCNC(=N)N)C(=O)NCCCOCC(COCCCNC(=O)[C@H](CCCNC(=N)N)NC(=O)[C@H](CCCNC(=N)N)NC(=O)[C@H](CCCC)NC(=O)[C@@H](NC(=O)[C@H](CCC(=O)O)NC(=O)[C@H](CCC(=O)O)NC(=O)COCCOCCNC(=O)c1ccc2c(c1)C(=O)OC21c2ccc(O)cc2Oc2cc(O)ccc21)[C@@H](C)CC)(COCCCNC(=O)[C@H](CCCNC(=N)N)NC(=O)[C@H](CCCNC(=N)N)NC(=O)[C@H](CCCC)NC(=O)[C@@H](NC(=O)[C@H](CCC(=O)O)NC(=O)[C@H](CCC(=O)O)NC(=O)COCCOCCNC(=O)c1ccc2c(c1)C(=O)OC21c2ccc(O)cc2Oc2cc(O)ccc21)[C@@H](C)CC)NC(N)=O` (stereo partly drawn) [NAP] (I: {5FAM-AEEA}-EEI[Nle]RR / II: {5FAM-AEEA}-EEI[Nle]RR / III: {5FAM-AEEA}-EEI[Nle]RR; linker I:C-II:C-III:C via X1) the neutrophil necrosis [2] was “did not cause”, the red cell haemolysis (erythrocytes) was “did not cause” and the “local or distant organ toxicity” value (rats; NAP 100 µg instilled via the trachea (approximately 700 times the human dose), necroscopy at 3 and 15 days) was “No local or distant organ toxicity was observed”. The “haematological or other metabolic consequences” value (rats; NAP 100 µg instilled via the trachea, 3 and 15 days) was “no haematological or other metabolic consequences”, the “increase in fluorescence compared to the resting state” value ([3]; NAP 5 µM in PBS with purified HNE, 37 °C, read every minute for 1 h, ex 488 nm / em 525 nm, three independent experiments) was about 350% and the mutagenicity [4] was “no mutagenicity”.

For `CC(C)(C)C(=O)Oc1ccc(S(=O)(=O)Nc2ccccc2C(=O)NCC(=O)O)cc1` [Sivelestat], the “effect of inhibitor on intracellular NAP fluorescent signal (confocal)” value [5] was “abrogated”, the “effect of inhibitor … (flow cytometry)” value [1] was “abrogated” and the “effect of inhibitor on cleavage of NAP by HNE” value ([3]; Sivelestat 100 µM, NAP 5 µM, 100 nM HNE) was “completely abrogated”.

For carboxyfluorescein, the “change in fluorescence with pH” value [6] was “expected increase in fluorescence as H^+ concentration falls”.
